Assay results published in PubChem BioAssay (NCI).
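Where inhibition never reached the appropriate level, the endpoint shown equals the highest concentration tested. Otherwise, values were interpolated linearly from a five-concentration, 48-hour dose response in 96-well plates. The concentration for full growth arrest is given as TGI.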

Tests used:
Experiment in all cases: growth of human tumour cells (NCI), 48 h
M14 melanoma = tested on: M14 melanoma
SF-295 CNS = tested on: SF-295 CNS
HOP-62 NSCLC = tested on: HOP-62 NSCLC
OVCAR-4 ovarian = tested on: OVCAR-4 ovarian
CCRF-CEM leukemia = tested on: CCRF-CEM leukemia
RXF 393 renal = tested on: RXF 393 renal
MOLT-4 leukemia = tested on: MOLT-4 leukemia
MALME-3M melanoma = tested on: MALME-3M melanoma
NCI-H226 lung = tested on: NCI-H226 lung
SF-539 CNS = tested on: SF-539 CNS
UACC-62 melanoma = tested on: UACC-62 melanoma
NCI-H460 lung = tested on: NCI-H460 lung
SK-MEL-2 melanoma = tested on: SK-MEL-2 melanoma
IGROV1 ovarian = tested on: IGROV1 ovarian
TK-10 renal = tested on: TK-10 renal
NCI-H23 lung = tested on: NCI-H23 lung
SK-MEL-5 melanoma = tested on: SK-MEL-5 melanoma
OVCAR-8 ovarian = tested on: OVCAR-8 ovarian
CAKI-1 renal = tested on: CAKI-1 renal
SR leukemia = tested on: SR leukemia

Structure (SMILES)	TGI (M14 melanoma) [µM]	TGI (SF-295 CNS) [µM]	TGI (HOP-62 NSCLC) [µM]	TGI (OVCAR-4 ovarian) [µM]	TGI (CCRF-CEM leukemia) [µM]	TGI (RXF 393 renal) [µM]	TGI (MOLT-4 leukemia) [µM]	TGI (MALME-3M melanoma) [µM]	TGI (NCI-H226 lung) [µM]	TGI (SF-539 CNS) [µM]	TGI (UACC-62 melanoma) [µM]	TGI (NCI-H460 lung) [µM]	TGI (SK-MEL-2 melanoma) [µM]	TGI (IGROV1 ovarian) [µM]	TGI (TK-10 renal) [µM]	TGI (NCI-H23 lung) [µM]	TGI (SK-MEL-5 melanoma) [µM]	TGI (OVCAR-8 ovarian) [µM]	TGI (CAKI-1 renal) [µM]	TGI (SR leukemia) [µM]
O=c1oc2cc(O)ccc2c(O)c1Cc1c(O)c2ccc(O)cc2oc1=O	> 100	> 100	> 100	> 100	> 100	> 100	> 100	> 100	> 100	> 100	> 100	> 100	> 100	> 100	> 100	> 100	> 100	> 100	> 100	> 100
CCC1NC(N=Nc2ccc([N+](=O)[O-])cc2)(P(=O)(OC(C)C)OC(C)C)OC1=O (stereo unspecified)	> 100	> 100	> 100	> 100	> 100	–	> 100	> 100	–	> 100	> 100	–	> 100	> 100	> 100	> 100	> 100	> 100	> 100	> 100
Cc1ccc2c(=O)c3ccccc3sc2c1	> 100	–	> 100	> 100	> 100	> 100	> 100	> 100	> 100	> 100	> 100	> 100	–	> 100	> 100	> 100	> 100	> 100	> 100	> 100
CC1=CC2c3cccc4[nH]cc(c34)CC2N(C)C1 (stereo unspecified)	–	> 100	30.8	> 100	> 100	> 100	> 100	> 100	> 100	> 100	> 100	> 100	> 100	> 100	–	> 100	> 100	> 100	> 100	–
O=C(O)C1CCCCN1c1ccccc1[N+](=O)[O-] (stereo unspecified)	> 100	> 100	> 100	> 100	> 100	> 100	> 100	> 100	> 100	> 100	> 100	> 100	> 100	> 100	> 100	> 100	> 100	> 100	> 100	> 100
CN(Cc1cnc2c(N)nc(N)nc2n1)c1ccc(Cl)cc1	> 100	> 100	> 100	–	> 100	61.5	> 100	> 100	32.5	70.9	> 100	> 100	> 100	> 100	> 100	> 100	> 100	> 100	> 100	> 100
C[C@@H]1CC[C@@]2(OC1)O[C@H]1C[C@H]3[C@@H]4CC[C@H]5C[C@@H](OC6OC(CO)C(OC7OC(CO)C(O)C(OC8OCC(O)C(O)C8O)C7OC7OC(CO)C(O)C(O)C7O)C(O)C6O)[C@H](O)C[C@]5(C)[C@H]4CC[C@]3(C)[C@H]1[C@@H]2C (stereo partly specified)	32	13.4	2.94	4.62	1.53	27.1	31.1	30.8	23.9	12.8	47.3	4.17	24.8	8.31	> 100	7.39	45.8	9.64	12.5	> 33.8
